# Laboratory results published in US20230063230A1, “NURR1 RECEPTOR MODULATORS” (priority 2019, published 2023).
# Legend:
# Nurr1 LBD [1] = biological target: T1, Nurr1 LBD (Homo sapiens, UniProt P43354); assay: Surface plasmon resonance (SPR) assay; format: binding
# Experimental: Surface Plasmon Resonance Assays. Data were collected using Biacore T200 (GE) instrument at a flow rate of 30 μL/min and at a temperature of 25° C. The running buffer was 25 mM HEPES, pH 7.4, 150 mM NaCl, 0.05% Surfactant Tween 20, and 2% DMSO. The biotinylated Nurr1 LBD was immobilized on a sensor chip SA (GE Healthcare Life Sciences; product number 29104992) or at 6000-7000 RU, or a CAP chip (GE Healthcare Life Sciences; product number 28920234) at 1500-2000 RU. Data collection was performed with kinetic titration mode. Analytes dilutions were carried out starting from DMSO stocks (10 mM). Analytes dissolved in DMSO were added to 1.02x running buffer without DMSO to yield a final DMSO concentration of 2%. When using CAP chip, surface regeneration was performed between each titration curve using 6 M guanidine.HCl+0.25 M NaOH regeneration solution followed by re-immobilization of Nurr1 (as described in the manufacturer's regeneration protocol). Data processing included double referencing (i.e., reference flow cell and buffer subtracted using a buffer injection of appropriate contact time for the given injection). Solvent correction was performed using a standard curve in a range of 1.8-2.3% DMSO.
# [2] = biological target: T2, Nurr1 LBD fused to Gal4 DBD (Homo sapiens, UniProt P43354); assay: Luciferase reporter assay; format: cell-based
# T2 construct: expressed in transfected cells; host or cells: SK-N-BE(2)C cells (ATCC CRL-2268)
# Experimental: In particular, direct binding to the Nurr1 LBD in vitro was measured using microscale thermophoresis (MST) and surface plasmon resonance (SPR), and efficacy in cells was measured using a lucifierase reporter assay (Nurr1 LBD fused to Gal4 DBD, measuring effect on luciferase activity) and target gene transcription assays (full length Nurr1, measuring mRNA levels of specific Nurr1 target genes). These assays pointed to a subset of compounds that bind directly to the Nurr1 LBD (by MST and/or SPR) and produce >1.5-fold changes in Nurr1 activity in cells (by Luc and/or TGT assays) (Table 1, Table 2).
# Luciferase Reporter Assays. pBIND—Nurr1 is generated by cloning Nurr1 LBD (a.a. 328-598 of human Nurr1) into pBIND vector (Promega E2440). The pBIND vector also contains a Renilla luciferase gene under the control of the SV40 Promoter that can be used to normalize the transfection efficiency. The firefly luciferase reporter pG5-Luc vector (Promega E2440) contains 5 repeats of GAL4 UAS (upstream activation sequence) upstream of luciferase gene. SK—N— BE(2)C cells (ATCC CRL-2268) were transiently transfected with pBIND—Nurr1 and pG5-Luc by FuGENE HD (Promega, E2311) in 96-well-plate with the seeding density of 200,000 cells/mL. […] After 18 hours, the luminescence of Firefly and Renilla luciferase were measured by Dual Luciferase Reporter Assay System (Promega E1960).
# [3] = biological target: T3, Nurr1 ligand binding domain (Homo sapiens, UniProt P43354); assay: Crystal structures of ligands covalently bound to Nurr1; settings: crystal structure, Cys566
# Text: First, we used the Nurr1 ligand binding domain (LBD) and a disulfide-trapping screen to identify 50 compounds that conjugate directly to Nurr1, undergoing a disulfide exchange reaction with Cys566.
# Nurr1 LBD [4] = biological target: T1, Nurr1 LBD; assay: Differential scanning fluorimetry (DSF); format: binding
# Text: (§1) Dopamine is broken down inside the neurons that produce it, generating oxygen free-radicals and other potentially damaging molecules (53). Among the reactive metabolites is 5,6-dihydroxyindole (DHI), a compound that undergoes spontaneous oxidation to a reactive quinone, which oligomerizes to form a polymer (neuromelanin) of unknown function. This polymer accounts for the dark appearance of nigrostriatal neurons in the normal adult CNS (54,55). Dopamine is also a central player in stress and addiction (3). It is clear that dopamine levels need to be tightly regulated in the CNS. Nurr1 controls all the genes required for dopamine synthesis, but its regulation is poorly understood as the receptor lacks both the canonical NR ligand binding pocket and the classic NR co-regulator binding surface (33). We postulated that Nurr1 might be regulated by dopamine itself, or one of its metabolites, and investigated this possibility using a combination of biophysical and structural techniques. […] Identifying stable analogs of DHI will enable more detailed studies of this intriguing biology.
# Nurr1 target genes = assay: Transcription of Nurr1 target genes in live zebrafish; format: in vivo
# Text: as §1
# [5] = tested on: Nurr1 target genes in MN9D cells; assay: MN9D target gene transcription assay; format: cell-based; settings: gene expression normalized to Hprt
# Experimental: MN9D Assays. MN9Dtet-on cells were treated with 10 μM of each compound or DMSO (vehicle control) for 6 to 24 hrs. Total RNAs were isolated using Quick-RNA miniprep Plus (ZYMO Research, cat#: R^1058), and were subsequently reverse transcribed using High Capacity cDNA Reverse Transcription kit (Applied Biosystems, cat#: 4368814). SYBR Green quantitative real-time PCR analysis was performed using CFX96 Real Time system (BioRad). The following primer pairs were used for qPCR: Nurr1; 5′-[…]-3′ (SEQ ID NO:5) and 5′-[…]-3′ (SEQ ID NO:6), Pitx3; 5′-GCAACTGGCCGCCCAAGG-3′ (SEQ ID NO:7) and 5′-AGGCCCCACGTTGACCGA-3′ (SEQ ID NO:8), VMAT2; 5′-[…]-3′ (SEQ ID NO:9) and 5′-[…]-3′ (SEQ ID NO:10), TH; 5′-[…]-3′ (SEQ ID NO:11) and 5′-[…]-3′ (SEQ ID NO:12), HPRT; 5′-TGGGAGGCCATCACATTGT-3′ (SEQ ID NO:13) and 5′-[…]-3′ (SEQ ID NO:14). The levels of gene expression were normalized to the level of housekeeping gene (HPRT) expression.
# Nurr1 [6] = biological target: T4, Nurr1 (Homo sapiens, UniProt P43354); assay: Binding MST
# Nurr1 [7] = biological target: T4, Nurr1; assay: Binding SPR
# [8] = biological target: T3, Nurr1 ligand binding domain; assay: Microscale thermophoresis (MST) binding assay; settings: measured by microscale thermophoresis
# Experimental: Microscale thermophoresis (MST) assays. Data were collected using the Nanotemper Monolith NT.115 at a temperature of 25° C. The MST buffer used in each experiment was 25 mM HEPES (Sigma Aldrich), pH 7.4, 150 mM NaCl (Alfa Aesar), and 0.02% Pluronic (Sigma Aldrich). All samples were prepared using Protein LoBind tubes or deepwell plates (Eppendorf). The His-tagged Nurr1 was labeled with RED-tris-NTA dye (NT-647) according to the kit's protocol (Nanotemper). Dilutions of each ligand were carried out starting from DMSO stocks of 10 mM in DMSO. The analyte solutions in DMSO were added to aliquots of MST buffer to yield a DMSO concentration of 4%.
# Two types of experiments were performed: endpoint and binding affinity assays. For the endpoint assays, equal amounts of the ligand solution and labeled Nurr1 were mixed to yield the final concentrations: 50 nM Nurr1, 25 nM RED-tris-NTA dye, 2% DMSO, and either 25 μM or 100 μM of the desired ligand in the MST buffer. […]
# The Monolith NT.115 settings for all samples were 40% excitation power and 40% MST power. The initial fluorescence was recorded for 3 seconds and the thermophoresis fluorescence response was recorded for 20 seconds. […] Screening Analysis software (Nanotemper) was used to normalize the fluorescent response signals to the sample's initial fluorescence. […]
# TH in SHSY5Y = assay: qPCR SHSY5Y TH; format: cell-based; settings: Homo sapiens, SH-SY5Y, cpds tested at 10 μM
# Vmat2 in MN9D = assay: cells; format: cell-based; settings: cpds tested at 10 μM, analogs of compound 87, read-out: qPCR MN9D Vmat2
# Pitx3 in MN9D = assay: qPCR MN9D Pitx3; format: cell-based; settings: cpds tested at 10 μM, analogs of compound 87
# Nurr1 in MN9D = assay: qPCR MN9D Nurr1; format: cell-based; settings: cpds tested at 10 μM, analogs of compound 87
# Th in MN9D = assay: qPCR MN9D Th; format: cell-based; settings: cpds tested at 10 μM, analogs of compound 87
# T1 sequence (P43354 360-595 limits assumed): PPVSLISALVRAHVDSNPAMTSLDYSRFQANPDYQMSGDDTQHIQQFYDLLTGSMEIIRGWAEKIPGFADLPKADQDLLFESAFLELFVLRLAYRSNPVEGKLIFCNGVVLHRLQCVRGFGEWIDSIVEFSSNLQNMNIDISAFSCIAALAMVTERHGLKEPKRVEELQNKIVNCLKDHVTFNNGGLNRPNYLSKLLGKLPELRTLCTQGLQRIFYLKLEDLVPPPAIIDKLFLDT
# T4 sequence (P43354 360-595 limits assumed): as above
# T3 sequence (P43354 360-595 limits assumed): as above
# T2 sequence (P43354 328-598): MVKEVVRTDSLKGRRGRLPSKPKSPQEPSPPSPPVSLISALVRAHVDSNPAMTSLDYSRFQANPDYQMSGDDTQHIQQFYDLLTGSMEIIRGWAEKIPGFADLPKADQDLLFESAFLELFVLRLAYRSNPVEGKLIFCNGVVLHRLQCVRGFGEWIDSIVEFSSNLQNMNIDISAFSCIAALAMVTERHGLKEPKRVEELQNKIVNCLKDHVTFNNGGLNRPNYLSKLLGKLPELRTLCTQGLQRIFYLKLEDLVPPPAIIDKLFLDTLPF
structure (smiles),measurement,setting,value
"Oc1cc2cc[nH]c2cc1O [DHI, 5,6-dihydroxyindole]",Off-rate,Nurr1 LBD [1],very slow off-rate
same,Kd,Nurr1 LBD [1]; read-out: Kd for binding to Nurr1,5 µM
same,Nurr1 activity in the reporter assay,[2],stimulating Nurr1 activity
same,Covalent binding to Nurr1,[3],reversible covalent adduct with Cys566
same,"Stabilization of the Nurr1 LBD, melting temperature",Nurr1 LBD [4],increasing the melting temperature by one degree
same,Expression of VMAT,"Nurr1 target genes; acute exposure (6 h, data not shown)",drives the expression
same,Transcription of Nurr1 target genes in live zebrafish,Nurr1 target genes; in vivo,driving transcription of Nurr1 target genes
same,Expression of TH,Nurr1 target genes; longer exposure (24 h),drives the expression
"O=C(COc1ccc(Cl)c(Cl)c1)NCCS [SP 85, 2-(3,4-dichlorophenoxy)-N-(2-mercaptoethyl)acetamide]",Transcription of Nurr1 target genes in MN9D cells,[5],stimulate the transcription of Nurr1 target genes
same,Binding MST,Nurr1 [6]; analogs of compound 85,+++
same,Binding SPR,Nurr1 [7]; analogs of compound 85,+
same,"Binding to the Nurr1 ligand binding domain, affinity",[8],high nanomolar affinity
"CC(C)(NC(=O)c1cc(Cl)cc(Cl)c1)c1cn(CCS)nn1 [SP 87, 3,5-dichloro-N-(2-(1-(2-mercaptoethyl)-1H-1,2,3-triazol-4-yl)propan-2-yl)benzamide]",Transcription of Nurr1 target genes in MN9D cells,[5],stimulate the transcription of Nurr1 target genes
same,Binding MST,Nurr1 [6]; analogs of compound 87,+++
same,Binding SPR,Nurr1 [7]; analogs of compound 87,+
same,fold induction at 10 µM,TH in SHSY5Y,> 1.5
same,"Binding to the Nurr1 ligand binding domain, affinity",[8],high nanomolar affinity
same,fold induction at 10 µM,Vmat2 in MN9D,> 4
"CC(=O)SCCn1cc(C(C)(C)NC(=O)c2ccc(Cl)c(Cl)c2)nn1 [SP 171, S-2-(4-(2-(3,4-dichlorobenzamido)propan-2-yl)-1H-1,2,3-triazol-1-yl)ethyl ethanethioate]",fold induction at 10 µM,Pitx3 in MN9D,> 4
"CC(=O)SCCn1cc(C(C)(C)NC(=O)c2ccc3ocnc3c2)nn1 [SP 195, S-2-(4-(2-(benzo[d]oxazole-5-carboxamido)propan-2-yl)-1H-1,2,3-triazol-1-yl)ethyl ethanethioate]",fold induction at 10 µM,Nurr1 in MN9D,> 1.5
same,fold induction at 10 µM,Pitx3 in MN9D,> 1.5
"CC(=O)SCCn1cc(C(C)(C)NC(=O)c2cccc(C#N)c2)nn1 [SP 196, S-2-(4-(2-(3-cyanobenzamido)propan-2-yl)-1H-1,2,3-triazol-1-yl)ethyl ethanethioate]",fold induction at 10 µM,Th in MN9D,> 1.5
same,fold induction at 10 µM,Nurr1 in MN9D,> 4
NCCc1ccc(O)c(O)c1 [dopamine],"Stabilization of the Nurr1 LBD, melting temperature",Nurr1 LBD [4],not
